Measurements taken from ChEMBL document CHEMBL1201862, “PubChem BioAssay data set” (2004).
The source made the active and inactive calls.

Legend:
[1] = molecular target: T1, Voltage-gated N-type calcium channel alpha-1B subunit/Amyloid beta A4 precursor protein-binding family A member 1 (Homo sapiens, UniProt Q00975+Q02410); format: protein assay
[2] = molecular target: T1, Voltage-gated N-type calcium channel alpha-1B subunit/Amyloid beta A4 precursor protein-binding family A member 1; format: protein assay; remark: listed apart in the source
[3] = molecular target: T2, Short transient receptor potential channel 4 (Mus musculus, UniProt Q9QUQ5); test: block of DAMGO-driven TRPC4 calcium entry – cell-based, HEK293 TRPC4/mu-opioid, Fluo-4 calcium, dose response (AID 434942); format: functional;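 further: potency of inhibitors blocking the TRPC4 calcium response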
T2 sequence (Q9QUQ5 whole entry): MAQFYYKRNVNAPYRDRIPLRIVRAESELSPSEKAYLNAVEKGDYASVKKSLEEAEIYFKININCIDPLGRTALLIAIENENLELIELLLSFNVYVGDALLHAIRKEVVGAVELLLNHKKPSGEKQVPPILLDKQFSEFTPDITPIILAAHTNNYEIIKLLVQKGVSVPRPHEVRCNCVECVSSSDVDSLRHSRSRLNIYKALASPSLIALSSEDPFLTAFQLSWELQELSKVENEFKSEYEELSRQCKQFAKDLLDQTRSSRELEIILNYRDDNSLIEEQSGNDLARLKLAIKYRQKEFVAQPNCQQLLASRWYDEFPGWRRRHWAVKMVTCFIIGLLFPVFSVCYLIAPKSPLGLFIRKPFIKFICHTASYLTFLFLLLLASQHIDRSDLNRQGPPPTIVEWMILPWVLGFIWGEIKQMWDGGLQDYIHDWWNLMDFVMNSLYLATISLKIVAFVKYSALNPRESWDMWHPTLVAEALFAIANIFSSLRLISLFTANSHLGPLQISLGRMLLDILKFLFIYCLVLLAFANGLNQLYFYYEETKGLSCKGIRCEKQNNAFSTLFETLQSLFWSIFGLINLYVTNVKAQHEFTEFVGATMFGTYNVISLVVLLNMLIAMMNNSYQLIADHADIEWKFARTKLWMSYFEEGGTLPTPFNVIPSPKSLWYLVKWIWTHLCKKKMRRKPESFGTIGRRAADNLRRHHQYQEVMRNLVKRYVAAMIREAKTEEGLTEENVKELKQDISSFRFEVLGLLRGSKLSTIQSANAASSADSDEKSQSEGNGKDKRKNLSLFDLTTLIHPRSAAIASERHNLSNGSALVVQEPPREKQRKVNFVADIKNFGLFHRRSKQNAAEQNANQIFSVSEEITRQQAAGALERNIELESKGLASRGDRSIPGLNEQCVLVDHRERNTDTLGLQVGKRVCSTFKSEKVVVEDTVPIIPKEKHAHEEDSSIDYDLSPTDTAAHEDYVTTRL

Vero = test: cells; format: functional, cell-based; details: Chlorocebus sabaeus
[4] = molecular target: Glyceraldehyde-3-phosphate dehydrogenase (Homo sapiens, UniProt P04406)
[5] = molecular target: Alkaline phosphatase, placental type (Homo sapiens, UniProt P05187); test: human placental alkaline phosphatase inhibition – biochemical, luminescence, confirmation (AID 1512); format: functional
[6] = molecular target: T3, Alkaline phosphatase, tissue-nonspecific isozyme (Homo sapiens, UniProt P05186); test: potency against alkaline phosphatase TNAP – biochemical, luminescent, dose response, SAR follow-up (AID 1056)
T3 sequence (P05186 whole entry): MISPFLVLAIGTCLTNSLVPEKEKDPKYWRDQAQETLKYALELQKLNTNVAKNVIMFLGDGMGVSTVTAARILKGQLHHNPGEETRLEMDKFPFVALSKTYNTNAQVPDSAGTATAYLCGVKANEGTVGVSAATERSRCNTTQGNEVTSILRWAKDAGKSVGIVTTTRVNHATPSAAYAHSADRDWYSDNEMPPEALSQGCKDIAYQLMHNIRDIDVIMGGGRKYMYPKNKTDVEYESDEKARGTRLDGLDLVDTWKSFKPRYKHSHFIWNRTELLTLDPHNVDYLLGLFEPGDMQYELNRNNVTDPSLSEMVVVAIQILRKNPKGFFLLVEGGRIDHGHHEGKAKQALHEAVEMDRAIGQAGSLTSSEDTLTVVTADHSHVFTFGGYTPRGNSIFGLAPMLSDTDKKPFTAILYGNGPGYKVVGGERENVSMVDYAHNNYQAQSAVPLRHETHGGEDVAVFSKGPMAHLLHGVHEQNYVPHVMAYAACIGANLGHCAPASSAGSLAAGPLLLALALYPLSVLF

[7] = molecular target: T2, Short transient receptor potential channel 4; test: calcium entry via TRPC4 opening agents – cell-based, HEK293 TRPC4/mu-opioid, Fluo-4 calcium, dose response (AID 434937); format: functional
[8] = Trypanosoma cruzi growth suppression in host cells – NIH3T3 host cells, beta-gal luminescence, confirmation (AID 2044); format: functional, cell-based;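 further: intracellular parasites grown in NIH/3T3 mouse fibroblasts as host cells; luminescent beta-galactosidase reporter signal from transgenic T. cruzi replicating inside host cells; inhibitors lower the luminescence signal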
[9] = NIH3T3 cell viability loss – ATP luminescence, mouse fibroblasts, counter-screen, dose response (AID 2010); format: functional, cell-based;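 further: cells exposed to compound for about 90 hours before reading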
[10] = molecular target: T4, Replicative DNA helicase DnaB (Mycobacterium tuberculosis, UniProt P9WMR3); test: DnaB intein splicing inhibitors, dose response, biochemical, cell-free fluorescence (AID 449749); format: functional
T4 sequence (P9WMR3 whole entry): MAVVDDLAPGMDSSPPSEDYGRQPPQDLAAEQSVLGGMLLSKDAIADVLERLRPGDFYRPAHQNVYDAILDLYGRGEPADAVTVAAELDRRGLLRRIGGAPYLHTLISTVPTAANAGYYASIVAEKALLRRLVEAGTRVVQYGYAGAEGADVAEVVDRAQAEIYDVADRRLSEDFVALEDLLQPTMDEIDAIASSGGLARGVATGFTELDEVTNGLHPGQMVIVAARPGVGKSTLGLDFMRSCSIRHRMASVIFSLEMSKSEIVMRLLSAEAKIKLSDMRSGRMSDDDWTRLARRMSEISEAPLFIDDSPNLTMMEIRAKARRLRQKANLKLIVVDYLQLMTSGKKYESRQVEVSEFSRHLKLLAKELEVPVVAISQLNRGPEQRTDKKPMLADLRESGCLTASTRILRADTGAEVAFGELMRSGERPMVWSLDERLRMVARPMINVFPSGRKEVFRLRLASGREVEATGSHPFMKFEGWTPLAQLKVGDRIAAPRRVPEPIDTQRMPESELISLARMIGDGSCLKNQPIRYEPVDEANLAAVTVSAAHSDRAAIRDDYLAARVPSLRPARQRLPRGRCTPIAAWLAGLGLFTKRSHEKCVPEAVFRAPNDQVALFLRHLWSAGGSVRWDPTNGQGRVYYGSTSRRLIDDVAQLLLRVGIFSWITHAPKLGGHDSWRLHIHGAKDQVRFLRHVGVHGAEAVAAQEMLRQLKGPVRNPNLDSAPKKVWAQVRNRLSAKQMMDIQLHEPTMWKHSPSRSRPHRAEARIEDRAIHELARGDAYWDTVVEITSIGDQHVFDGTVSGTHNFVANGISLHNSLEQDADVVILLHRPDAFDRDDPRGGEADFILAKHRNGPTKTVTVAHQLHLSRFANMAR

Protein RecA = molecular target: T5, Protein RecA (Mycobacterium tuberculosis, UniProt P9WHJ3); test: Fluorescence Cell-Free Homogeneous Dose Retest to Identify Inhibitors of RecA-Intein Splicing Activity. [Related pubchem assays (depositor defined):AID2097, AID2223, AID489010, AID492950]; format: functional
T5 sequence (P9WHJ3 whole entry): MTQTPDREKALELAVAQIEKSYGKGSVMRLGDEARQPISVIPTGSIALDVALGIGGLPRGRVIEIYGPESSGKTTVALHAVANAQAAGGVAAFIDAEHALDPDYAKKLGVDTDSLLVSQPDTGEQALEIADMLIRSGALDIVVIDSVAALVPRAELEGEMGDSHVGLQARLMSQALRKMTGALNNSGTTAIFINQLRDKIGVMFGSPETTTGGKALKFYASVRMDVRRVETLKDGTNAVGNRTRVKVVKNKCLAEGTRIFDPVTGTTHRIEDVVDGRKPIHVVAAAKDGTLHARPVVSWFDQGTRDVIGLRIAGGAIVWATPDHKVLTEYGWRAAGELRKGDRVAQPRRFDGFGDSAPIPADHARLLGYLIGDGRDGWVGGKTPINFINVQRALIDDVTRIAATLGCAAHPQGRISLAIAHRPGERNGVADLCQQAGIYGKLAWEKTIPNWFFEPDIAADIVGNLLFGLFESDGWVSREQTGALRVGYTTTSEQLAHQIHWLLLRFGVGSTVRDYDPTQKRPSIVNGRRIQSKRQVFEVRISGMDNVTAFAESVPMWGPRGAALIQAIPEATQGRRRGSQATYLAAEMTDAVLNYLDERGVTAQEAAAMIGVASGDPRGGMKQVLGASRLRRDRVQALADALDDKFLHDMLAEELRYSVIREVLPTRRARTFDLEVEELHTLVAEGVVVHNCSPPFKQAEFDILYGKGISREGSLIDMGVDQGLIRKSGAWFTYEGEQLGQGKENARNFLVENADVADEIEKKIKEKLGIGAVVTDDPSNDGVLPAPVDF

T1 sequence (Q00975 whole entry): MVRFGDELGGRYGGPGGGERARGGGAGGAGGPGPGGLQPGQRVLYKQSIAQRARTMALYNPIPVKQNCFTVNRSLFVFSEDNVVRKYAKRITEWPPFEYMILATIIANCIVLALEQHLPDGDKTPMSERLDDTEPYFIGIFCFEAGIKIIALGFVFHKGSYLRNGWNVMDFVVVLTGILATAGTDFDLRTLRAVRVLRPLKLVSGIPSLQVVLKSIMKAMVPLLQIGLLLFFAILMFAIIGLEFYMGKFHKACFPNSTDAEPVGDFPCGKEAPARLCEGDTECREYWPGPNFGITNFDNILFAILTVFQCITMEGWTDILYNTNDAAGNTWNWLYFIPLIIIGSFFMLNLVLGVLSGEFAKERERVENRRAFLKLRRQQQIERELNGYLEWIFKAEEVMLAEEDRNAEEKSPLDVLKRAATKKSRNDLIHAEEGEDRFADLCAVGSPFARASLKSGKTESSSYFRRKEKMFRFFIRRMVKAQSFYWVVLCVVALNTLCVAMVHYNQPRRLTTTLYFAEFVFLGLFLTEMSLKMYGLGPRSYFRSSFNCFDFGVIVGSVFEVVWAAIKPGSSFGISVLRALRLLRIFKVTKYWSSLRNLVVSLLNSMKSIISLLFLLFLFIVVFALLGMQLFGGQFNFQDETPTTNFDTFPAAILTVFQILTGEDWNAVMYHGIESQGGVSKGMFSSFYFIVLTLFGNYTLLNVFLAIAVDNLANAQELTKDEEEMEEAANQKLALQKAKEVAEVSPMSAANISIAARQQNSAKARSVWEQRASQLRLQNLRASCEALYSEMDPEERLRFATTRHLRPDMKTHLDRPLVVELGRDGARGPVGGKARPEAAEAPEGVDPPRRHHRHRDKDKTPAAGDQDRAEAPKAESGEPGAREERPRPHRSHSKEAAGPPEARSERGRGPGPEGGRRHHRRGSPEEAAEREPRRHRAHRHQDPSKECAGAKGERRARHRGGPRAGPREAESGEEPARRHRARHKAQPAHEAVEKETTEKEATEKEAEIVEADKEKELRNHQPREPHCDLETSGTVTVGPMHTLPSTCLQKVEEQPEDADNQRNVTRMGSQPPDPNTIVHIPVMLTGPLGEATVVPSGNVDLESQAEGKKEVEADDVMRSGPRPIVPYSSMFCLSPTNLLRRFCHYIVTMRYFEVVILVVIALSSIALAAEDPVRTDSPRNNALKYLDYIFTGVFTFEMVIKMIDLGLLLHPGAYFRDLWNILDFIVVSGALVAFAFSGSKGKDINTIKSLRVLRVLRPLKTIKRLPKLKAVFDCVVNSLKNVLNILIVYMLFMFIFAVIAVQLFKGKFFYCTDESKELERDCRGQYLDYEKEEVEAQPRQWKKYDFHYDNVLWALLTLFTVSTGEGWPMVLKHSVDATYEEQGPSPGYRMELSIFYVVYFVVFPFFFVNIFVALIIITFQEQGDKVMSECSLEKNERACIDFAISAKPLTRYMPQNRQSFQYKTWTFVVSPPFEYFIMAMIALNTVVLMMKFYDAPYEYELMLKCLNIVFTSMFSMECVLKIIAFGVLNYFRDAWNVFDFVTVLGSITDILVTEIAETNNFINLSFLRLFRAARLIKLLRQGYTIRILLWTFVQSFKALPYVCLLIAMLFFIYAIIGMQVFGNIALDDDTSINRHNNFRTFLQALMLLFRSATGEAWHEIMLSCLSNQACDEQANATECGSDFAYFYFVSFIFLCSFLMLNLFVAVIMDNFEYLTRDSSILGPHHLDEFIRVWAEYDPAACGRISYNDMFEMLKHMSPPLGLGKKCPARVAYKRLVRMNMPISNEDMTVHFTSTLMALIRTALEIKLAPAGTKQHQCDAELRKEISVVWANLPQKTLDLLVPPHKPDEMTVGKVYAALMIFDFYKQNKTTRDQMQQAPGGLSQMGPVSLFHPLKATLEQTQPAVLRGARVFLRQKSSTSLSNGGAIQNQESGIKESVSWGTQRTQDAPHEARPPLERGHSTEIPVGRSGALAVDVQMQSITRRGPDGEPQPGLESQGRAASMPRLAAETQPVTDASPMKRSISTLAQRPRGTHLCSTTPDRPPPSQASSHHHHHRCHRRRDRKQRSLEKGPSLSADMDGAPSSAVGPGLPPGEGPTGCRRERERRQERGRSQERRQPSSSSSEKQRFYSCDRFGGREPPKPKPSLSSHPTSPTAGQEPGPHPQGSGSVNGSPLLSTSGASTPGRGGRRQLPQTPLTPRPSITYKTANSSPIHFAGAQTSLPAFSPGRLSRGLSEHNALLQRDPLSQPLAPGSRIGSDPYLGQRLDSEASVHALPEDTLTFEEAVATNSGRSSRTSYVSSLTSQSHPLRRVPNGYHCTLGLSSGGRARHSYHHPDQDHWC
T1 sequence (Q02410 whole entry): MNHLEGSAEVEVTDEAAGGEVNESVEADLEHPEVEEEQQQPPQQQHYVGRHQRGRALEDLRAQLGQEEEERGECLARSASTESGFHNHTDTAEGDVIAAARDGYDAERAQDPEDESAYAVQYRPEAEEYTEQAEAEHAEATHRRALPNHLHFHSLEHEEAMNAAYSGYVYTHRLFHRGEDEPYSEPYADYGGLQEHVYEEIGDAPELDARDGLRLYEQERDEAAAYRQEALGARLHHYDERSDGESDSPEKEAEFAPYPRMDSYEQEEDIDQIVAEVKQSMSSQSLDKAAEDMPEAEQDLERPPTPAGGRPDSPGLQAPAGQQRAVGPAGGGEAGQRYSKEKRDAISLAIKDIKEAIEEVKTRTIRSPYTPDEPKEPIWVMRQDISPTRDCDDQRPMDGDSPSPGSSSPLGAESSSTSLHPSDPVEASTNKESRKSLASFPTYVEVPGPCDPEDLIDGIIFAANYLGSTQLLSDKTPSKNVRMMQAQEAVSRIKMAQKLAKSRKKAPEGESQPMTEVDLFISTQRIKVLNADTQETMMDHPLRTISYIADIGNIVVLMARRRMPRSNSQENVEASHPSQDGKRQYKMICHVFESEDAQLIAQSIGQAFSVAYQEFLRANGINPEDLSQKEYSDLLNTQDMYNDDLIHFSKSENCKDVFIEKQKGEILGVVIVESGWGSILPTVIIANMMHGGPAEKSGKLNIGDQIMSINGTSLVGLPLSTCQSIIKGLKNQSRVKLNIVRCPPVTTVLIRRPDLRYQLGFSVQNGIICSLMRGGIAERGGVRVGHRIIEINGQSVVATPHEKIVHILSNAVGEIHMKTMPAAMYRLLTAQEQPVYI
Chain of Glyceraldehyde-3-phosphate dehydrogenase (P04406 whole entry): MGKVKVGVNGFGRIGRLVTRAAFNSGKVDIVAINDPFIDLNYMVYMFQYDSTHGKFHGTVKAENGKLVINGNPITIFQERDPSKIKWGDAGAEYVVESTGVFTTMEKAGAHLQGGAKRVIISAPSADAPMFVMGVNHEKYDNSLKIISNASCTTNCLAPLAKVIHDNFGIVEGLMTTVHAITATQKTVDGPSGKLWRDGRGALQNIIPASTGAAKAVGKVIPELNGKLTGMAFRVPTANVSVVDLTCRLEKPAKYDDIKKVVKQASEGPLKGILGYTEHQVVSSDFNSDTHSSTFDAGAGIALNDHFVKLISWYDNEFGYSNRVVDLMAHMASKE
Chain of Alkaline phosphatase, placental type (P05187 whole entry): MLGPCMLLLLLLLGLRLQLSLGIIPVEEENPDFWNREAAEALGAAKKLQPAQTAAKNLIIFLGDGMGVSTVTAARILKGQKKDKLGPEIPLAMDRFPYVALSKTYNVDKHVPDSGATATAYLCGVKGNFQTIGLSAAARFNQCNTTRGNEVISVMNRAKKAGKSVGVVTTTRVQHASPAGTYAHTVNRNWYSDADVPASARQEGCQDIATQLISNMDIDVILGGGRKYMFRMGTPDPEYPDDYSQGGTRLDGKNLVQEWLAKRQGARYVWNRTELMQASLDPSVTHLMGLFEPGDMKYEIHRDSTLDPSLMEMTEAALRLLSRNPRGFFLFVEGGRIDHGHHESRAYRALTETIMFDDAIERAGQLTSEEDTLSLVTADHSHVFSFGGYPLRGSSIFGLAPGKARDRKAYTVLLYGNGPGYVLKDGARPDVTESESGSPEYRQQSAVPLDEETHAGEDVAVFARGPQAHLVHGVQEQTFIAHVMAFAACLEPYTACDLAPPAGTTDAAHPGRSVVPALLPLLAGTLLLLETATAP

Row | SMILES | EC50 [3] | IC50 [4] | IC50 [5] | IC50 [6] | also measured
1 | O=C(O)Cc1sc(Nc2ccc(Cl)cc2)nc1-c1cccs1 | – | – | – | – | IC50 [1]: 16 µM (active); IC50 [2]: > 50 µM (inactive)
2 | O=C(Cc1cccc2ccccc12)Nc1ccc(Br)cc1C(=O)O | 5.96 µM (active) | – | – | – | IC50 (Vero): > 25 µM (active)
3 | CC1(C)CC(=O)c2c(-c3ccc(Cl)cc3)n[nH]c2C1 | – | > 100 µM (not active) | > 100 µM (inactive) | 5.02 µM (active) | –
4 | Nc1nnc(-c2ccc(Cl)cc2)[nH]1 | – | > 100 µM (not active) | > 100 µM (inactive) | 24.5 µM (active) | –
5 | CN1CSC2=C(C#N)C(c3cccc(OCc4ccccc4)c3)CC(=O)N2C1 (configuration not stated) | – | – | – | – | IC50 [1]: 7.59 µM (active); IC50 [2]: 47.6 µM (active)
6 | Cc1ccccc1C(=O)Nc1c(C(=O)N(CCN(C)C)Cc2ccco2)oc2ccccc12 | 0.473 µM (active) | – | – | – | EC50 [7]: 4.22 µM (active)
7 | COc1ccccc1/C=C/CN1CCCC(CCC(=O)NCc2ccc(F)c(F)c2)C1 (configuration not stated) | – | – | – | – | EC50 [8]: < 100 nM (active); EC50 [9]: > 60 µM (not active); EC50 [7]: 0.168 µM (active); EC50 (cells): 43 nM (active)
8 | COc1ccc(-c2n[nH]c3c2C(=O)CC(C)(C)C3)cc1 | – | > 100 µM (not active) | > 100 µM (inactive) | 3.57 µM (active) | –
9 | Cn1ncc2c1ncn1c(-c3ccc(Cl)cc3Cl)nnc21 | – | > 100 µM (not active) | > 100 µM (inactive) | > 100 µM (inactive) | –
10 | Cc1[nH]n(C)c(=O)c1C(=O)c1c(-c2c(Cl)cccc2Cl)noc1C | 4.22 µM (active) | – | – | – | AC50 [10]: 5.13 µM (active); EC50 (Protein RecA): 1.71 µM (active)
